Measured values reported in publication PMC11817140, “Characterization of Novel Plantaricin-Derived Antiviral Peptides Against Flaviviruses” (International Journal of Molecular Sciences, 2025).
Several values for one entry are separate records, joined by “and”; a condition that tells them apart may be missing. Identical values can stand only once.

What follows are substances tested on West Nile virus Kunjin strain (KUNV) (assay: Plaque reduction assay in Vero cells after pre-incubating virus with peptide). Settings: 10 µM peptide, KUNV 1 × 10^5 PFU exposed in DMEM for 1 h at room temperature, then Vero cells 1 h, overlay, 3 days, mean with SD of three independent experiments.
Assay type: cell-based
Experimental: The antiviral activity of the synthesized peptides was evaluated using plaque reduction assays in Vero cells against West Nile virus Kunjin strain (KUNV, accession number AY274504). Vero cells (Vero E6, ATCC, CRL-1586, Manassas, VA, USA) were maintained in Dulbecco’s Modified Eagle Medium (DMEM, Thermo Fisher Scientific, Gibco, Göteborg, Sweden), supplemented with 10% fetal bovine serum (FBS, Thermo Fisher Scientific, Gibco, Göteborg, Sweden) and antibiotics (PEST, Thermo Fisher Scientific, Gibco, Göteborg, Sweden). For the antiviral assays, Vero cells were seeded in 24-well plates and allowed to reach confluency. The virus suspension (1 × 10^5 PFU) was pre-incubated with the peptides at 10 µM concentration or lower (in the combination experiment) for 1 h at room temperature. The peptide–virus mixtures were then added to the Vero cell monolayers and incubated for 1 h at 37 °C. Following incubation, the inoculum was removed, and cells were overlaid with Avicel 2.4% overlay media (FMC, Philadelphia, PA, USA). Plates were incubated for 3 days at 37 °C in a CO2 incubator. Post-incubation, cells were fixed with 100% methanol and stained with 1% crystal violet to visualize and count viral plaques. The reduction in plaque numbers compared to control wells (virus without peptide) was used to quantify antiviral activity.

“β1-6: truncated peptide derived from PLNC8 β (SVPTSV)” and “α16-22: truncated peptide derived from PLNC8 α (KKARWNL)” are within error of each other in “KUNV (% Reduction)” value: 21 ± 22% for the first, 3 ± 6% for the second.

Compared with “β14-20: truncated peptide derived from PLNC8 β (LWSAYKH)”, “α1-15: truncated peptide derived from PLNC8 α (DLTTKLWSSWGYYLG)” is higher in “KUNV (% Reduction)” value: 3 ± 4% for the first, 91 ± 2% for the second.

Compared with “β1-20: truncated peptide derived from PLNC8 β (SVPTSVYTLGIKILWSAYKH)”, “RRSRKNGIGYAIGYAFGAVERAVLGGSRDYNK [PlnK, full-length peptide K of two-peptide plantaricin JK, reference compound]” is lower in “KUNV (% Reduction)” value: 92 ± 4% for the first, 18 ± 9% for the second.

Compared with “α1-8: truncated peptide derived from PLNC8 α (DLTTKLWS)”, “SVPTSVYTLGIKILWSARKFGKVIEKSFNKGFYH [β16, modified peptide derived from PLNC8 β]” is higher in “KUNV (% Reduction)” value: 20 ± 18% for the first, 84 ± 8% for the second.

First: β10-17: truncated peptide derived from PLNC8 β (GIKILWSA)
Second: α9-15: truncated peptide derived from PLNC8 α (SWGYYLG)
The “KUNV (% Reduction)” value of the first is lower: 0 ± 0% for the first, 16 ± 7% for the second.

Compared with “β21-34: truncated peptide derived from PLNC8 β (RKTIEKSFNKGFYH)”, “α9-29: truncated peptide derived from PLNC8 α (SWGYYLGKKARWNLKHPYVQF)” is higher in “KUNV (% Reduction)” value: 0 ± 0% for the first, 10 ± 6% for the second.

Compared with “AYSLQMGATAIKQVKKLFKKWGW [PlnA, full-length plantaricin A, peptide pheromone of Lactobacillus plantarum C11, reference compound]”, “SVPTSVYTLGQKILRSARKFGKDIEKSFNKGFYH [β14, modified peptide derived from PLNC8 β]” is lower in “KUNV (% Reduction)” value: 27 ± 9% for the first, 6 ± 8% for the second.

First: VFHAYSARGVRNNYKSAVGPADWVISAVRGFIHG [PlnF, full-length peptide F of two-peptide plantaricin EF, reference compound]
Second: SVPTSVYLLGIKILWKARKFGKVIEKSFNKGFYH [β18, modified peptide derived from PLNC8 β]
The “KUNV (% Reduction)” value of the first is higher: 24 ± 6% for the first, 12 ± 1% for the second.

“FNRGGYNFGKSVRHVVDAIGSVAGIRGILKSIR [PlnE, full-length peptide E of two-peptide plantaricin EF, reference compound]” and “β28-34: truncated peptide derived from PLNC8 β (FNKGFYH)” are within error of each other in “KUNV (% Reduction)” value: 24 ± 6% for the first, 11 ± 15% for the second.

Compared with “β4-17: truncated peptide derived from PLNC8 β (TSVYTLGIKILWSA)”, “α9-22: truncated peptide derived from PLNC8 α (SWGYYLGKKARWNL)” is lower in “KUNV (% Reduction)” value: 56 ± 32% for the first, 7 ± 7% for the second.

“SVPTSVYTLGIKILRSARKFGKVIEKSFNKGFYH [β15, modified peptide derived from PLNC8 β]” and “α23-29: truncated peptide derived from PLNC8 α (KHPYVQF)” are within error of each other in “KUNV (% Reduction)” value: 9 ± 13% for the first, 10 ± 4% for the second.

First: β7-34: truncated peptide derived from PLNC8 β (YTLGIKILWSAYKHRKTIEKSFNKGFYH)
Second: SVPTSVYTLGQKILRSARKFGKTIEKSFNKGFYH [β13, modified peptide derived from PLNC8 β]
The “KUNV (% Reduction)” value of the first is higher: 52 ± 27% for the first, 8 ± 11% for the second.

Going from “β7-20: truncated peptide derived from PLNC8 β (YTLGIKILWSAYKH)” to “SVPTSVYLLGIKILWSARKFGKVIEKSFNKGFYH [β17, modified peptide derived from PLNC8 β]”, the “KUNV (% Reduction)” value falls from 65 ± 20% to 14 ± 12%.

Compared with “α16-29: truncated peptide derived from PLNC8 α (KKARWNLKHPYVQF)”, “α1-22: truncated peptide derived from PLNC8 α (DLTTKLWSSWGYYLGKKARWNL)” is higher in “KUNV (% Reduction)” value: 2 ± 0% for the first, 28 ± 2% for the second.

Going from “β14-34: truncated peptide derived from PLNC8 β (LWSAYKHRKTIEKSFNKGFYH)” to “SVPTSVYTLGIKILWSAYKHRKTIEKSFNKGFYH [PLNC8 β, full-length β peptide (34 residues) of two-peptide bacteriocin plantaricin NC8 αβ, reference compound]”, the “KUNV (% Reduction)” value rises from 5 ± 0.2% to 70 ± 12%.

Going from “GAWKNFWSSLRKGFYDGEAGRAIRR [PlnJ, full-length peptide J of two-peptide plantaricin JK, reference compound]” to “β1-13: truncated peptide derived from PLNC8 β (SVPTSVYTLGIKI)”, the “KUNV (% Reduction)” value falls from 30 ± 8% to 5 ± 7%.

“β7-13: truncated peptide derived from PLNC8 β (YTLGIKI)” was tested, and the “KUNV (% Reduction)” value was 8 ± 4%.

With “DLTTKLWSSWGYYLGKKARWNLKHPYVQF [PLNC8 α, full-length α peptide (29 amino acids) of two-peptide bacteriocin plantaricin NC8 αβ, reference compound]” the “KUNV (% Reduction)” value was ~ 35% and 35 ± 2%.

Same assay, conditions: 10 µM peptide, KUNV 1 × 10^5 PFU exposed in DMEM for 1 h at room temperature, then Vero cells 1 h, overlay, 3 days, mean with SD of three independent experiments, listed as PLNC8 α1-15

“α1-15: truncated peptide derived from PLNC8 α (DLTTKLWSSWGYYLG)” was tested, and the “KUNV (% Reduction)” value was “over 90%”.

Same assay, conditions: 10 µM peptide, KUNV 1 × 10^5 PFU exposed in DMEM for 1 h at room temperature, then Vero cells 1 h, overlay, 3 days, mean with SD of three independent experiments, listed as PLNC8 β1-20

“β1-20: truncated peptide derived from PLNC8 β (SVPTSVYTLGIKILWSAYKH)” was tested, and the “KUNV (% Reduction)” value was “over 90%”.
